According to patent US20070048371A1, “Pharmaceutical formulations/composition of guanfacine suitable for single dose form administration daily” (priority 2005, published 2007):

Assays:
[1] = Example 3: Phase I single-dose crossover bioequivalence/dose proportionality study, 1 mg, 2 mg, 4 mg tablets, healthy adult volunteers; format: in vivo, human; conditions: for Vd/F: Vz/F; for half-life: t1/2
Procedure: Objectives: The study was designed to assess the bioequivalence of guanfacine 2 mg and 4 mg tablets from table 2 and to investigate the dose proportionality of 1 mg, 2 mg, and 4 mg doses.
Methods: This was a Phase I, randomized, open-label, single-dose, five period, four-treatment crossover design with a separate lead-in period.
Forty-nine (49) healthy adult volunteers completed the study. During period 1, all subjects received a single 1 mg dose administered after and overnight fast. Prior to period 2, subjects were randomly assigned to one of four sequence groups, with 13 subjects per sequence. During treatment periods 2-5, subjects received their assigned treatment of 2 mg or 4 mg. All subjects were to receive two single doses of 2 mg tablets and two single doses of 4 mg tablets during the course of the study. Doses during periods 2-5 were also administered after an overnight fast.

[2] = Example 4: Phase I single-dose crossover bioequivalence study, 2.5 mg versus 2 mg tablets, healthy adult volunteers; format: in vivo, human; conditions: for AUC(0-t): AUC0-last; for Vd/F: Vz/F
Procedure: Objectives: The objective of this study was to investigate the bioequivalence of guanfacine 2.5 mg tablets versus guanfacine 2 mg tablets.
Methods: This Phase I study utilized a randomized, open-label, single-dose, three-treatment crossover design. Forty-eight (48) healthy adult volunteers completed the study. All subjects were randomly assigned to one of 6 treatment sequences and received a 2 mg and 2.5 mg tablet of guanfacine. During treatment periods 1-3, subjects received their assigned treatment (a single oral dose 2 mg or 2.5 mg after an overnight fast).

N=C(N)NC(=O)Cc1c(Cl)cccc1Cl [guanfacine]
AUC(0-inf) ([1]; human, in vivo, 4 mg, AUC∞): ~0.125 µg·h/mL
Cmax ([1]; human, in vivo, 4 mg, mean Cmax): ~3.58 ng/mL
Tmax ([1]; human, in vivo, 4 mg, median Tmax): ~5 h
CL/F ([1]; human, in vivo, po, 1 mg): 560 ± 194 mL/mm
AUC(0-t) ([1]; human, in vivo, po, 1 mg, AUC0-t): 0.0293 ± 0.00884 µg·h/mL
AUC(0-inf) ([1]; human, in vivo, po, 1 mg, AUC0-∞): 0.0324 ± 0.00878 µg·h/mL
Cmax ([1]; human, in vivo, po, 1 mg, Cmax): 0.98 ± 0.26 ng/mL
Vd/F ([1]; human, in vivo, po, 1 mg): 823 ± 249 L
half-life ([1]; human, in vivo, po, 1 mg): 17.5 ± 3.83 h
Tmax ([1]; human, in vivo, po, 1 mg, tmax): 6 h
AUC0-∞ ([1]; human, in vivo, po, 2 mg): 0.0578 ± 0.0191 µg·h/mL
AUC(0-t) ([1]; human, in vivo, po, 2 mg): 0.054 ± 0.0176 µg·h/mL
Cmax ([1]; human, in vivo, po, 2 mg): 1.54 ± 0.53 ng/mL
Vz/F ([1]; human, in vivo, po, 2 mg): 889 ± 241 L
t1/2 ([1]; human, in vivo, po, 2 mg): 16.7 ± 4.12 h
AUC(0-t) ([1]; human, in vivo, po, 2 mg, AUC0-t): 0.055 ± 0.018 µg·h/mL
AUC(0-inf) ([1]; human, in vivo, po, 2 mg, AUC0-∞): 0.0581 ± 0.0188 µg·h/mL
Cmax ([1]; human, in vivo, po, 2 mg, Cmax): 1.59 ± 0.49 ng/mL
Vd/F ([1]; human, in vivo, po, 2 mg): 894 ± 328 L
half-life ([1]; human, in vivo, po, 2 mg): 16.4 ± 3.46 h
Tmax ([1]; human, in vivo, po, 2 mg, tmax): 6 h
AUC0-∞ ([1]; human, in vivo, po, 4 mg): 0.123 ± 0.0446 µg·h/mL
AUC(0-t) ([1]; human, in vivo, po, 4 mg): 0.119 ± 0.0434 µg·h/mL
Cmax ([1]; human, in vivo, po, 4 mg): 3.59 ± 1.40 ng/mL
Vz/F ([1]; human, in vivo, po, 4 mg): 866 ± 393 L
t1/2 ([1]; human, in vivo, po, 4 mg): 16.2 ± 4.15 h
AUC(0-t) ([1]; human, in vivo, po, 4 mg, AUC0-t): 0.12 ± 0.0415 µg·h/mL
AUC(0-inf) ([1]; human, in vivo, po, 4 mg, AUC0-∞): 0.125 ± 0.046 µg·h/mL
Cmax ([1]; human, in vivo, po, 4 mg, Cmax): 3.58 ± 1.39 ng/mL
Vd/F ([1]; human, in vivo, po, 4 mg): 854 ± 294 L
half-life ([1]; human, in vivo, po, 4 mg): 17.1 ± 5.51 h
Tmax ([1]; human, in vivo, po, 4 mg, tmax): 5.01 h
half-life ([1]; human, in vivo): 17.1 ± 5.5 h
deaths or serious adverse events ([1]; single 1 mg, 2 mg, 4 mg doses, healthy adults): no deaths or serious adverse events
AUC(0-t) ([2]; human, in vivo, 2.5 mg): ~0.0813 µg·h/mL
AUC(0-inf) ([2]; human, in vivo, 2.5 mg, AUC∞): ~0.085 µg·h/mL
Cmax ([2]; human, in vivo, 2.5 mg, mean Cmax): ~2.49 ng/mL
Tmax ([2]; human, in vivo, 2.5 mg, median Tmax): ~6 h
CL/F ([2]; human, in vivo, po, 2 mg): 612 ± 303 mL/min
AUC(0-inf) ([2]; human, in vivo, po, 2 mg, AUC0-inf): 0.0642 ± 0.0226 µg·h/mL
AUC(0-t) ([2]; human, in vivo, po, 2 mg): 0.0598 ± 0.0209 µg·h/mL
Cmax ([2]; human, in vivo, po, 2 mg, Cmax): 1.71 ± 0.56 ng/mL
half-life ([2]; human, in vivo, po, 2 mg, T½): 17.7 ± 5.8 h
Vd/F ([2]; human, in vivo, po, 2 mg): 884 ± 382 L
Tmax ([2]; human, in vivo, po, 2 mg, tmax): 6 h
T½ ([2]; human, in vivo, po, 2.5 mg): 16.7 ± 7.4 h
Vz/F ([2]; human, in vivo, po, 2.5 mg): 809 ± 406 L
AUC(0-inf) ([2]; human, in vivo, po, 2.5 mg, AUC0-inf): 0.0845 ± 0.0342 µg·h/mL
AUC(0-t) ([2]; human, in vivo, po, 2.5 mg): 0.0778 ± 0.0304 µg·h/mL
Cmax ([2]; human, in vivo, po, 2.5 mg, Cmax): 2.26 ± 0.67 ng/mL
Tmax ([2]; human, in vivo, po, 2.5 mg, Tmax): 5 h
half-life ([2]; human, in vivo, po, 2.5 mg, T½): 19 ± 6.6 h
Vd/F ([2]; human, in vivo, po, 2.5 mg): 915 ± 390 L
half-life ([2]; human, in vivo, t1/2): 16.7 ± 7.4 h
deaths ([2]; single 2 mg and 2.5 mg doses, healthy adults): no deaths
